Molecules are shown by their SMILES.

In general, EC50 refers to the concentration needed to bring the measured effect to its halfway point.

The experiment has as its system HBV viral production from HepAD38 cells. In words: Activity of test compounds on viral production from HepAD38 cells (viral load by qPCR of HBV core sequence in supernatant). The experiment is classed as cell-based. The note with it: Hepatitis B virus, 120 h, 5 days incubation, HBV DNA in supernatant by qPCR, top concentration 10 μM, read-out: Viral Load EC50 Activity range. An outline of the steps: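 HepAD38 cells, 50,000/well in tetracycline-free 2% FBS medium, treated 5 days at 37° C. with compound from 10 μM top concentration. HBV DNA in supernatant quantified by TaqMan qPCR of core sequence against DNA standards, relative to DMSO wells; CellTiter-Glo viability read in parallel. EC50/CC50 from four-parameter logistic fit.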
(In general: Real-time PCR tracks product formation cycle by cycle.)
Consider `CN1C(C(=O)Nc2ccc(F)c(Cl)c2)CC(c2ccc(-c3ccc(F)cn3)s2)NS1(=O)=O` (racemic) [HBV-CSU-242, Cis-N-(3-chloro-4-fluorophenyl)-5-(5-(5-fluoropyridin-2-yl)thiophen-2-yl)-2-methyl-1,2,6-thiadiazinane-3-carboxamide 1,1-dioxide], for which the EC50 was less than 1000 nM.

For `CN1C(C(=O)Nc2ccc(F)c(Cl)c2)CC(c2cc(-c3ccc(F)cn3)cs2)NS1(=O)=O` (racemic) [HBV-CSU-243, Cis-N-(3-chloro-4-fluorophenyl)-5-(4-(5-fluoropyridin-2-yl)thiophen-2-yl)-2-methyl-1,2,6-thiadiazinane-3-carboxamide 1,1-dioxide], the half-maximal effective concentration (EC50) is less than 1000 nM.

Consider `CN1C(C(=O)Nc2ccc(F)c(Cl)c2)CC(c2ccc(-c3cnn(C)c3)cc2)NS1(=O)=O` (racemic) [HBV-CSU-246, Cis-N-(3-Chloro-4-fluorophenyl)-2-methyl-5-(4-(1-methyl-1H-pyrazol-4-yl)phenyl)-1,2,6-thiadiazinane-3-carboxamide 1,1-dioxide], for which the EC50 was less than 1000 nM.

Turning to `CN1C(C(=O)Nc2ccc(F)c(Cl)c2)CC(c2cccc(-c3cnn(C)c3)c2)NS1(=O)=O` (racemic) [HBV-CSU-247, Cis-N-(3-chloro-4-fluorophenyl)-2-methyl-5-(3-(1-methyl-1H-pyrazol-4-yl)phenyl)-1,2,6-thiadiazinane-3-carboxamide 1,1-dioxide], the EC50 was less than 1000 nM.

With `CN1C(C(=O)Nc2ccc(F)c(Cl)c2)CC(c2ncc(-c3ccc(F)cc3)s2)NS1(=O)=O` (racemic) [HBV-CSU-248, Cis-N-(3-Chloro-4-fluorophenyl)-5-(5-(4-fluorophenyl)thiazol-2-yl)-2-methyl-1,2,6-thiadiazinane-3-carboxamide 1,1-dioxide], the EC50 is less than 1000 nM.

As to `COc1ccc(-c2cnc(C3CC(C(=O)Nc4ccc(F)c(Cl)c4)N(C)S(=O)(=O)N3)s2)cc1` (racemic) [HBV-CSU-250, Cis-N-(3-Chloro-4-fluorophenyl)-5-(5-(4-methoxyphenyl)thiazol-2-yl)-2-methyl-1,2,6-thiadiazinane-3-carboxamide 1,1-dioxide], the EC50 was less than 1000 nM.

Turning to `CN1C(C(=O)Nc2ccc(F)c(Cl)c2)CC(c2ncc(-c3ccc(F)cn3)s2)NS1(=O)=O` (racemic) [HBV-CSU-252, Cis-N-(3-Chloro-4-fluorophenyl)-5-(5-(5-fluoropyridin-2-yl)thiazol-2-yl)-2-methyl-1,2,6-thiadiazinane-3-carboxamide 1,1-dioxide], the EC50 is less than 1000 nM.

Consider `CN1C(C(=O)Nc2ccc(F)c(Cl)c2)CC(c2ncc(-c3cn[nH]c3)s2)NS1(=O)=O` (racemic) [HBV-CSU-254, Cis-5-(5-(1H-pyrazol-4-yl)thiazol-2-yl)-N-(3-chloro-4-fluorophenyl)-2-methyl-1,2,6-thiadiazinane-3-carboxamide 1,1-dioxide], for which the EC50 was less than 1000 nM.

In the case of `CN1C(C(=O)Nc2ccc(F)c(Br)c2)CC(c2cc(Br)cs2)NS1(=O)=O` (racemic) [HBV-CSU-258, Cis-N-(3-Bromo-4-fluorophenyl)-5-(4-bromothiophen-2-yl)-2-methyl-1,2,6-thiadiazinane-3-carboxamide 1,1-dioxide], the EC50 was less than 1000 nM.

On to `CN1C(C(=O)Nc2ccc(F)c(Cl)c2)CC(c2cccc(Cl)c2)NS1(=O)=O` (racemic) [HBV-CSU-261, Cis-N-(3-Chloro-4-fluorophenyl)-5-(3-chlorophenyl)-2-methyl-1,2,6-thiadiazinane-3-carboxamide 1,1-dioxide], for which the EC50 is less than 1000 nM.

For `CN1C(C(=O)Nc2ccc(F)c(Cl)c2)CC(c2cccc(OC(F)(F)F)c2)NS1(=O)=O` (racemic) [HBV-CSU-262, Cis-N-(3-Chloro-4-fluorophenyl)-2-methyl-5-(3-(trifluoromethoxy)phenyl)-1,2,6-thiadiazinane-3-carboxamide 1,1-dioxide], the EC50 is less than 1000 nM.

As to `CN1C(C(=O)Nc2ccc(F)c(Cl)c2)CC(c2ccc(OC(F)F)cc2)NS1(=O)=O` (racemic) [HBV-CSU-263, Cis-N-(3-Chloro-4-fluorophenyl)-5-(4-(difluoromethoxy)phenyl)-2-methyl-1,2,6-thiadiazinane-3-carboxamide 1,1-dioxide], the concentration for a half-maximal effect (EC50) was less than 1000 nM.

As to `CN1C(C(=O)Nc2ccc(F)c(Cl)c2)CC(c2cccc(OC(F)F)c2)NS1(=O)=O` (racemic) [HBV-CSU-264, Cis-N-(3-chloro-4-fluorophenyl)-5-(3-(difluoromethoxy)phenyl)-2-methyl-1,2,6-thiadiazinane-3-carboxamide 1,1-dioxide], the EC50 was less than 1000 nM.

In the case of `CN1C(C(=O)Nc2ccc(F)c(Cl)c2)CC(c2ccc(-c3cn(C)cn3)s2)NS1(=O)=O` (racemic) [HBV-CSU-266, Cis-N-(3-Chloro-4-fluorophenyl)-2-methyl-5-(5-(1-methyl-1H-imidazol-4-yl)thiophen-2-yl)-1,2,6-thiadiazinane-3-carboxamide 1,1-dioxide], the EC50 is less than 1000 nM.

Turning to `CN1C(C(=O)Nc2ccc(F)c(Cl)c2)CC(c2ccc(-c3cncn3C)s2)NS1(=O)=O` (racemic) [HBV-CSU-267, Cis-N-(3-Chloro-4-fluorophenyl)-2-methyl-5-(5-(1-methyl-1H-imidazol-5-yl)thiophen-2-yl)-1,2,6-thiadiazinane-3-carboxamide 1,1-dioxide], the EC50 is less than 1000 nM.

`CN1C(C(=O)Nc2ccc(F)c(Cl)c2)CC(c2ccc(-c3cncs3)s2)NS1(=O)=O` (racemic) [HBV-CSU-268, Cis-N-(3-Chloro-4-fluorophenyl)-2-methyl-5-(5-(thiazol-5-yl)thiophen-2-yl)-1,2,6-thiadiazinane-3-carboxamide 1,1-dioxide]: the EC50 is less than 1000 nM.

Turning to `CN1C(C(=O)Nc2ccc(F)c(Cl)c2)CC(c2ccc(-c3cnco3)s2)NS1(=O)=O` (racemic) [HBV-CSU-269, Cis-N-(3-Chloro-4-fluorophenyl)-2-methyl-5-(5-(oxazol-5-yl)thiophen-2-yl)-1,2,6-thiadiazinane-3-carboxamide 1,1-dioxide], the EC50 is less than 1000 nM.

`CN1C(C(=O)Nc2ccc(F)c(Cl)c2)CC(c2ccc(-c3ccnn3C)s2)NS1(=O)=O` (racemic) [HBV-CSU-271, Cis-N-(3-chloro-4-fluorophenyl)-2-methyl-5-(5-(1-methyl-1H-pyrazol-5-yl)thiophen-2-yl)-1,2,6-thiadiazinane-3-carboxamide 1,1-dioxide]: the concentration for a half-maximal effect (EC50) was less than 1000 nM.

`CN1C(C(=O)Nc2ccc(F)c(Cl)c2)CC(c2ccc(-c3cncnc3)s2)NS1(=O)=O` (racemic) [HBV-CSU-272, Cis-N-(3-chloro-4-fluorophenyl)-2-methyl-5-(5-(pyrimidin-5-yl)thiophen-2-yl)-1,2,6-thiadiazinane-3-carboxamide 1,1-dioxide]: the concentration for a half-maximal effect (EC50) is less than 1000 nM.

Consider `CN1C(C(=O)Nc2ccc(F)c(Cl)c2)CC(c2ncc(-c3cn(C)cn3)s2)NS1(=O)=O` (racemic) [HBV-CSU-276, Cis-N-(3-Chloro-4-fluorophenyl)-2-methyl-5-(5-(1-methyl-1H-imidazol-4-yl)thiazol-2-yl)-1,2,6-thiadiazinane-3-carboxamide 1,1-dioxide], for which the EC50 was less than 1000 nM.

For the molecule `CN1C(C(=O)Nc2ccc(F)c(Cl)c2)CC(c2ncc(-c3cncn3C)s2)NS1(=O)=O` (racemic) [HBV-CSU-277, Cis-N-(3-Chloro-4-fluorophenyl)-2-methyl-5-(5-(1-methyl-1H-imidazol-5-yl)thiazol-2-yl)-1,2,6-thiadiazinane-3-carboxamide 1,1-dioxide], the EC50 is less than 1000 nM.

On to `CN1C(C(=O)Nc2ccc(F)c(Cl)c2)CC(c2ncc(-c3cncs3)s2)NS1(=O)=O` (racemic) [HBV-CSU-278, Cis-5-([5,5′-Bithiazol]-2-yl)-N-(3-chloro-4-fluorophenyl)-2-methyl-1,2,6-thiadiazinane-3-carboxamide 1,1-dioxide], for which the EC50 was less than 1000 nM.

With `CN1C(C(=O)Nc2ccc(F)c(Cl)c2)CC(c2ncc(-c3ccn(C)n3)s2)NS1(=O)=O` (racemic) [HBV-CSU-280, Cis-N-(3-Chloro-4-fluorophenyl)-2-methyl-5-(5-(1-methyl-1H-pyrazol-3-yl)thiazol-2-yl)-1,2,6-thiadiazinane-3-carboxamide 1,1-dioxide], the EC50 was less than 1000 nM.

For `CN1C(C(=O)Nc2ccc(F)c(Cl)c2)CC(c2ncc(-c3ccnn3C)s2)NS1(=O)=O` (racemic) [HBV-CSU-281, Cis-N-(3-Chloro-4-fluorophenyl)-2-methyl-5-(5-(1-methyl-1H-pyrazol-5-yl)thiazol-2-yl)-1,2,6-thiadiazinane-3-carboxamide 1,1-dioxide], the EC50 was less than 1000 nM.

On to `CN1C(C(=O)Nc2ccc(F)c(Cl)c2)CC(c2cc(-c3cncn3C)cs2)NS1(=O)=O` (racemic) [HBV-CSU-285, Cis-N-(3-Chloro-4-fluorophenyl)-2-methyl-5-(4-(1-methyl-1H-imidazol-5-yl)thiophen-2-yl)-1,2,6-thiadiazinane-3-carboxamide 1,1-dioxide], for which the EC50 was less than 1000 nM.

`CN1C(C(=O)Nc2ccc(F)c(Cl)c2)CC(c2cc(-c3cncs3)cs2)NS1(=O)=O` (racemic) [HBV-CSU-286, Cis-N-(3-Chloro-4-fluorophenyl)-2-methyl-5-(4-(thiazol-5-yl)thiophen-2-yl)-1,2,6-thiadiazinane-3-carboxamide 1,1-dioxide]: the EC50 is less than 1000 nM.

For `CN1C(C(=O)Nc2ccc(F)c(Cl)c2)CC(c2cc(-c3ccn(C)n3)cs2)NS1(=O)=O` (racemic) [HBV-CSU-288, Cis-N-(3-Chloro-4-fluorophenyl)-2-methyl-5-(4-(1-methyl-1H-pyrazol-3-yl)thiophen-2-yl)-1,2,6-thiadiazinane-3-carboxamide 1,1-dioxide], the EC50 was less than 1000 nM.

`CN1C(C(=O)Nc2ccc(F)c(Cl)c2)CC(c2cc(-c3ccnn3C)cs2)NS1(=O)=O` (racemic) [HBV-CSU-289, Cis-N-(3-chloro-4-fluorophenyl)-2-methyl-5-(4-(1-methyl-1H-pyrazol-5-yl)thiophen-2-yl)-1,2,6-thiadiazinane-3-carboxamide 1,1-dioxide]: the EC50 was less than 1000 nM.

Source of the values: patent publication US11078170B2 (Assembly Biosciences, Inc., priority 2017, dated 2021).
